In US10407467B2, “Polymyxin derivatives and their use in combination therapy together with different antibiotics” (priority 2013, dated 2019):
Numbered stars: 1 amine (or outer) side, 2 acyl side, 3 side chain; on linkers, the order of the positions; unused ones are H or OH. Bridge positions count the residues as written; N and C are the ends. Square brackets hold non-standard residues; d marks the D form. Peptide text beside a SMILES is read from it. Achc(trans-4) = O=C([C@H]1CC[C@H](N[*:1])CC1)[*:2]; Dab = NCC[C@H](N)C(=O)O

Key:
Format in all cases: cell-based
Acinetobacter baumannii [1] = assay: MIC, compound in combination with a second agent (broth microdilution)
How it was run: (§1)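 Read-out is the total-drug MIC of a 1:1 weight ratio combination with another agent, e.g. rifampicin. Duplicates within 2-fold gave the lower value; wider spread meant a non-valid assay. Where compounds were tested multiple times, the mode is given.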

Escherichia coli [2] = assay: as above
How it was run: as §1

Klebsiella pneumoniae [3] = assay: as above
How it was run: as §1

Pseudomonas aeruginosa [4] = assay: as above
How it was run: as §1

Acinetobacter baumannii [5] = assay: MIC, sole activity (no second agent); settings: Second Agent none (Table 7B, by row order)
How it was run: (§2)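 Up to four strains per species were tested in cation-adjusted Mueller-Hinton broth, with inoculum made by direct colony suspension from 18-24 hour Mueller-Hinton agar plates, adjusted to 0.5 McFarland. Duplicates differing by under 2-fold gave the lower value; greater spread voided the run. Values are relative to Polymyxin B.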

Escherichia coli [6] = assay: MIC, sole activity (no second agent)
How it was run: as §2

Klebsiella pneumoniae [7] = assay: MIC, sole activity (no second agent)
How it was run: as §2

Pseudomonas aeruginosa [8] = assay: MIC, sole activity (no second agent)
How it was run: as §2

[9] = 1:1 combination with Ciprofloxacin (by row order), total drug concentration
[10] = 1:1 combination with Ciprofloxacin, total drug concentration
[11] = 1:1 combination with Tigecycline, total drug concentration
[12] = 1:1 combination with Vancomycin, total drug concentration
[13] = Second Agent none (Table 7B, by row order)

- MIC A. baumannii ATCC BAA-747 (Acinetobacter baumannii [1]; 1:1 (wt:wt) combination with Rifampicin, MIC = total drug concentration, strain ATCC BAA-747): 0.125 micrograms/mL
- MIC A. baumannii CCUG57249 (Acinetobacter baumannii [1]; 1:1 (wt:wt) combination with Rifampicin, MIC = total drug concentration, strain CCUG57249): <0.06 micrograms/mL
- MIC A. baumannii NCTC 13423 (Acinetobacter baumannii [1]; 1:1 (wt:wt) combination with Rifampicin, MIC = total drug concentration, strain NCTC 13423): ≤0.06 micrograms/mL
- MIC A. baumannii NCTC 13424 (Acinetobacter baumannii [1]; 1:1 (wt:wt) combination with Rifampicin, MIC = total drug concentration, strain NCTC 13424): <0.06 micrograms/mL
- MIC A. baumannii NCTC 13424 (Acinetobacter baumannii [1]; [9]): 0.5 micrograms/mL
- MIC E. coli ATCC25922 (Escherichia coli [2]; 1:1 (wt:wt) combination with Rifampicin, MIC = total drug concentration, strain ATCC25922): ≤0.06 micrograms/mL
- MIC E. coli NCTC9001 (Escherichia coli [2]; 1:1 (wt:wt) combination with Rifampicin, MIC = total drug concentration, strain NCTC9001): 0.125 micrograms/mL
- MIC E. coli ATCC25922 (Escherichia coli [2]; [10]): ≤0.06 micrograms/mL
- MIC E. coli CCUG 59342 (Escherichia coli [2]; [10]): 0.5 micrograms/mL
- MIC E. coli NCTC9001 (Escherichia coli [2]; [10]): ≤0.06 micrograms/mL
- MIC E. coli NCTC9001 (Escherichia coli [2]; [11]): 16 micrograms/mL
- MIC E. coli NCTC9001 (Escherichia coli [2]; [12]): 16 microgram/mL
- MIC E. coli NCTC9001 (Escherichia coli [2]; E. coli NCTC9001, 1:1 combination with Meropenem, total drug concentration): 0.25 micrograms/mL
- MIC K. pneumoniae ATCC 4352 (Klebsiella pneumoniae [3]; 1:1 (wt:wt) combination with Rifampicin, MIC = total drug concentration, strain ATCC 4352): 0.125 micrograms/mL
- MIC K. pneumoniae ATCC-BAA-2146 (Klebsiella pneumoniae [3]; 1:1 (wt:wt) combination with Rifampicin, MIC = total drug concentration, strain ATCC-BAA-2146): 0.125 micrograms/mL
- MIC K. pneumoniae CCUG-59348 (Klebsiella pneumoniae [3]; 1:1 (wt:wt) combination with Rifampicin, MIC = total drug concentration, strain CCUG-59348): 2 micrograms/mL
- MIC K. pneumoniae NCTC 13438 (Klebsiella pneumoniae [3]; 1:1 (wt:wt) combination with Rifampicin, MIC = total drug concentration, strain NCTC 13438): 0.25 micrograms/mL
- MIC K. pneumoniae ATCC 4352 (Klebsiella pneumoniae [3]; [9]): ≤0.06 micrograms/mL
- MIC K. pneumoniae CCUG 59348 (Klebsiella pneumoniae [3]; [10]): >32 micrograms/mL
- MIC K. pneumoniae NCTC 13442 (Klebsiella pneumoniae [3]; [10]): 1 micrograms/mL
- MIC K. pneumoniae CCUG 59348 (Klebsiella pneumoniae [3]; [11]): >32 micrograms/mL
- MIC K. pneumoniae NCTC 13442 (Klebsiella pneumoniae [3]; [11]): 16 micrograms/mL
- MIC K. pneumoniae CCUG 59348 (Klebsiella pneumoniae [3]; [12]): >32 microgram/mL
- MIC K. pneumoniae CCUG 59626 (Klebsiella pneumoniae [3]; [12]): 0.25 microgram/mL
- MIC K. pneumoniae NCTC 13442 (Klebsiella pneumoniae [3]; [12]): 32 microgram/mL
- MIC K. pneumoniae ATCC BAA-1706 (Klebsiella pneumoniae [3]; K. pneumoniae ATCC BAA-1706, 1:1 combination with Meropenem, total drug concentration): 4 micrograms/mL
- MIC K. pneumoniae CCUG 59348 (Klebsiella pneumoniae [3]; K. pneumoniae CCUG 59348, 1:1 combination with Meropenem, total drug concentration): >32 micrograms/mL
- MIC K. pneumoniae NCTC 13442 (Klebsiella pneumoniae [3]; K. pneumoniae NCTC 13442, 1:1 combination with Meropenem, total drug concentration): 16 micrograms/mL
- MIC P. aeruginosa ATCC 27853 (Pseudomonas aeruginosa [4]; 1:1 (wt:wt) combination with Rifampicin, MIC = total drug concentration, strain ATCC 27853): 0.125 micrograms/mL
- MIC P. aeruginosa ATCC CRM-9027 (Pseudomonas aeruginosa [4]; 1:1 (wt:wt) combination with Rifampicin, MIC = total drug concentration, strain ATCC CRM-9027): 0.125 micrograms/mL
- MIC P. aeruginosa ATCC-47 (Pseudomonas aeruginosa [4]; 1:1 (wt:wt) combination with Rifampicin, MIC = total drug concentration, strain ATCC-47): 0.125 micrograms/mL
- MIC P. aeruginosa CCUG 59626 (Pseudomonas aeruginosa [4]; 1:1 (wt:wt) combination with Rifampicin, MIC = total drug concentration, strain CCUG 59626): 0.125 micrograms/mL
- MIC P. aeruginosa ATCC 27853 (Pseudomonas aeruginosa [4]; [9]): ≤0.06 micrograms/mL
- MIC P. aeruginosa CCUG 59626 (Pseudomonas aeruginosa [4]; [9]): 0.5 micrograms/mL
- MIC P. aeruginosa CCUG 59626 (Pseudomonas aeruginosa [4]; [11]): 0.25 micrograms/mL
- MIC P. aeruginosa CCUG 59626 (Pseudomonas aeruginosa [4]; P. aeruginosa CCUG 59626, 1:1 combination with Meropenem, total drug concentration): 0.5 micrograms/mL
- MIC A. baumannii NCTC 13424 (Acinetobacter baumannii [5]): 4 micrograms/mL
- MIC E. coli CCUG 59342 (Escherichia coli [6]; Second Agent none (Table 7B)): 0.25 micrograms/mL
- MIC E. coli NCTC9001 (Escherichia coli [6]; Second Agent none (Table 7B)): 16 micrograms/mL
- MIC E. coli ATCC25922 (Escherichia coli [6]; in the absence of Rifampicin, strain ATCC25922): 2 micrograms/mL
- MIC E. coli NCTC9001 (Escherichia coli [6]; in the absence of Rifampicin, strain NCTC9001): 16 micrograms/mL
- MIC K. pneumoniae CCUG 59348 (Klebsiella pneumoniae [7]; K. pneumoniae CCUG 59348, second agent none): >32 micrograms/mL
- MIC K. pneumoniae NCTC 13442 (Klebsiella pneumoniae [7]; K. pneumoniae NCTC 13442, second agent none): >32 micrograms/mL
- MIC K. pneumoniae CCUG 59348 (Klebsiella pneumoniae [7]; Second Agent none (Table 7A)): >32 microgram/mL
- MIC K. pneumoniae CCUG 59626 (Klebsiella pneumoniae [7]; Second Agent none (Table 7A)): 0.25 microgram/mL
- MIC K. pneumoniae NCTC 13442 (Klebsiella pneumoniae [7]; Second Agent none (Table 7A)): >32 microgram/mL
- MIC K. pneumoniae CCUG 59348 (Klebsiella pneumoniae [7]; Second Agent none (Table 7B)): >32 micrograms/mL
- MIC K. pneumoniae NCTC 13442 (Klebsiella pneumoniae [7]; Second Agent none (Table 7B)): >32 micrograms/mL
- MIC K. pneumoniae ATCC 4352 (Klebsiella pneumoniae [7]; [13]): 0.125 micrograms/mL
- MIC K. pneumoniae CCUG 59348 (Klebsiella pneumoniae [7]; Second Agent none (Table 7C)): >32 micrograms/mL
- MIC K. pneumoniae NCTC 13442 (Klebsiella pneumoniae [7]; Second Agent none (Table 7C)): >32 micrograms/mL
- MIC K. pneumoniae ATCC 4352 (Klebsiella pneumoniae [7]; in the absence of Rifampicin, strain ATCC 4352): 0.125 micrograms/mL
- MIC K. pneumoniae ATCC-BAA2146 (Klebsiella pneumoniae [7]; in the absence of Rifampicin, strain ATCC-BAA2146): 8 micrograms/mL
- MIC K. pneumoniae CCUG-59348 (Klebsiella pneumoniae [7]; in the absence of Rifampicin, strain CCUG-59348): >32 micrograms/mL
- MIC K. pneumoniae NCTC-13438 (Klebsiella pneumoniae [7]; in the absence of Rifampicin, strain NCTC-13438): 32 micrograms/mL
- MIC P. aeruginosa CCUG 59626 (Pseudomonas aeruginosa [8]; P. aeruginosa CCUG 59626, second agent none): 0.25 micrograms/mL
- MIC P. aeruginosa ATCC 27853 (Pseudomonas aeruginosa [8]; [13]): 0.125 micrograms/mL
- MIC P. aeruginosa CCUG 59626 (Pseudomonas aeruginosa [8]; [13]): 0.25 micrograms/mL
- MIC P. aeruginosa CCUG 59626 (Pseudomonas aeruginosa [8]; Second Agent none (Table 7C)): 0.25 micrograms/mL
- MIC P. aeruginosa ATCC 27853 (Pseudomonas aeruginosa [8]; in the absence of Rifampicin, strain ATCC27853): 0.125 micrograms/mL
- MIC P. aeruginosa CCUG 59626 (Pseudomonas aeruginosa [8]; in the absence of Rifampicin, strain CCUG 59626): 0.25 micrograms/mL
SMILES: CC(C)C[C@@H]1NC(=O)[C@@H](Cc2ccccc2)NC(=O)[C@H](CCN)NC(=O)[C@@H](NC(=O)[C@H](CCN)NC(=O)[C@@H](NC(=O)[C@H]2CC[C@H](N)CC2)[C@@H](C)O)CCNC(=O)[C@H]([C@@H](C)O)NC(=O)[C@H](CCN)NC(=O)[C@H](CCN)NC1=O [Example 17, Trans-4-aminocyclohexane-carbonyl polymyxin B nonapeptide] (H-[Achc(trans-4)]T[Dab][Dab][Dab][dF]L[Dab][Dab]T; lactam 4-C)
